The values that follow come from patent US6391873B1, “Imidazodiazepine derivative” (priority 1999, dated 2002).

SMILES strings stand for the structures.

For data set [1], the system named is animals. Briefly: anticonvulsant effects in animals. The format is in vivo. The following applies: low doses.
Data set [2] addresses benzodiazepine receptors. Kind of data set: 3H-flumazenil in vitro binding assay using homogenized rat cortex. As to conditions: inhibition of binding of tritiated flumazenil. The procedure: The preclinical pharmacological profile of the compound of the present invention for treatment of anxiety disorders, and/or treatment of convulsions and/or non-sedative treatment of sleep disorders involves no, or only minimal motor impairment, in a standard test of motor performance in animals (e.g. rotarod test in mice with motor function evaluated in the same animals at different time points up to 1 hour after intravenous injection).
The affinity of the compound of the invention to the central benzodiazepine receptors was established in vitro according to the methods described in Nature 294, 763-765 (1981) and J. Neurochemistry 37, 714-722 (1981). According to these methods, the inhibition of the binding of tritiated flumazenil to the specific benzodiazepine receptors in the cortex of rats by the respective test substance is determined. The affinity was calculated as pKi (for background information on pKi see: Cheng, Y. and W. H. Prusoff, Relationship between the inhibition constant (Ki) and the concentration of inhibitor which causes 50 percent inhibition (IC50) of an enzymatic reaction. Biochem. Pharmac. 22: 3099-3108, 1973) as the measure of the specific binding of tritiated flumazenil to specific benzodiazepine receptors in the cortex of rat.

For data set [3], the system named is cytochrome P450 isoenzymes. Briefly: inhibition of cytochrome P450 isoenzymes.
Data set [4] deals with mice. Kind of data set: rotating rod test (rotarod test), motor impairment. The following applies: for ED50 for a rotarod deficit: consistently at different time points up to 1 hour after intravenous injection. It is filed as in vivo, mouse. The procedure:
The motor impairing properties of the compound of the invention can be determined, for example, in the rotating rod test (rotarod test). […] These mice were housed in Macrolon® type I cages for one or more days following arrival in the laboratory colony (12:12 hour light-dark cycle). They have free access to a standard rodent diet (Kliba Mühlen, Kaiseraugst, Switzerland) and tap water in the home cage up to testing. They are brought into the test laboratory at least 30 min before the test which was done during the light portion of the day-night cycle. In the rotating rod test the animals are placed on a horizontally arranged, smooth metal rod having a diameter of 3 cm, which is rotated at 2 revolutions per min. Initially, the animals are given the opportunity of familiarizing themselves with the test situation for at least 30 sec. Subsequently, those animals which succeed in remaining on the rod for at least 1 min are selected for use in the test. These selected animals are then given the test preparations intravenously in different dosages. At various points in time post-injection, it is then determined whether the animals are able to remain wallking on the rod for a minimum period (minimum period of 10 sec at time points 15 sec. 30 sec. 1 min and 2 min; minimum period of 1 min at time points 5 min, 15 min, 30 min, 60 min). The dosage at which 50% of the animals are capable of remaining on the rod (i.e., ED50) was determined at each of these time points.

Data set [5] concerns rats. Kind of data set: fatalities after i.v. administration in rats. As to conditions: 100 mg/kg i.v. The format is in vivo.
Data set [6] relates to mice. Kind of data set: withdrawal signs in chronically treated mice challenged with a benzodiazepine receptor antagonist. The following applies: chronically treated mice challenged with benzodiazepine receptor antagonist (e.g., sarmazenil).
In data set [7] the test system is mice. Briefly: mouse operant conflict model of anxiety. As to conditions: oral bolus circa 30 min prior to conflict test; punished responding.
For data set [8], the system named is mice. Briefly: tolerance of the anxiolytic effect in mice after chronic treatment.
The subject of data set [9] is mice. Briefly: ethanol interaction in mice.
Data set [10] deals with rats. Kind of data set: cognitive impairment in rats.
The subject of data set [11] is mice. Briefly: fatalities after i.v. administration in mice (rotarod test). It is filed as in vivo, mouse. The following applies: up to 100 mg/kg i.v.

Regarding `CN(C)Cc1nc(-c2ncn3c2CN(C)C(=O)c2c(Cl)cccc2-3)no1` [compound of the invention, 7-Chloro-3-(5-dimethylaminomethyl-[1,2,4]oxadiazol-3-yl)-5-methyl-4,5-dihydro-imidazo[1,5-a][1,4]benzodiazepin-6-one], the anticonvulsant effects result in [1] is on record as “show anticonvulsant effects”. Besides, in [2], the “Affinity to benzodiazepine receptors” value was determined as 9.1. Moreover, in data set [3], the “inhibition of cytochrome P450 isoenzymes” value was “minimal or no inhibition”. For the same compound, the “Rotating rod test ED50” value in data set [4] (15 sec after administration), in data set [4] (20 sec after administration), in data set [4] (60 sec after administration), in data set [4] (2 min after administration), in [4] (5 min after administration) and in [4] (15 min after administration) was greater than 10 mg/kg i.v each time. The “Rotating rod test ED50” value in [4] (30 min after administration) and in data set [4] (60 min after administration) was greater than 10 mg/kg i.v in each case. Moreover, the “ED50 for a rotarod deficit” value in data set [4] was greater than 10 mg/kg i.v; in data set [4] (listed as compound of the present invention), “greater than 10 mg/kg i.v”. The fatalities result in data set [5] and in [11] was “without fatalities occurring” each time. The withdrawal signs result in data set [6] is given as “minimal withdrawal signs”. In addition, the “minimum effective dose (statistically significant anxiolytic-like effect)” value in data set [7] came to 3 mg/kg p.o. In data set [8], the “reduction (so-called tolerance) of the anxiolytic effect” value is listed as “minimal reduction”. For the same compound, in data set [9], the ethanol interaction result is “low ethanol interaction”. Moreover, the cognitive impairment entry in data set [10] is recorded as “minimal cognitive impairment”.
